Test results published in patent US20050054103A1, “Expansion of renewable stem cell populations using modulators of PI 3-kinase” (priority 2003, published 2005).
Blank lines part the entries; values can stand above or below the molecule they belong to.

Tests used:
[1] = tested on: CD34 cells; assay: Transition metal chelators in CD34+ cell liquid cultures (cell number, CD34 cells, clonability); format: cell-based, human
Experimental: The interphase layer of mononuclear cells were collected, washed three times with Ca/Mg free phosphate buffered saline containing 1% bovine serum albumin (BSA). The cells were incubated for 30 min. at 4° C. with murine monoclonal anti CD34 antibody (0.5 μg/10^6 mononuclear cells) and thereafter isolated using the miniMACS apparatus (Miltenyi-Biotec, Bergisch, Gladbach, Germany) according to the manufacturer's protocol.
Culture procedures: For the expansion of progenitor cells, CD34^+ enriched fractions or unseparated mononuclear cells were seeded at about 1-3×10^4 cells/ml in either alpha minimal essential medium containing 10% preselected fetal calf serum (FCS) (both from GIBCO, Grand Island, N.Y.), or serum-free medium (Progenitor-34 medium, Life Technologies, Grand Island, N.Y.). The media were supplemented with a mixture of growth factors and transition metal chelators. The cultures were incubated at 37° C. in an atmosphere of 5% CO2 in air with extra humidity. Half of the medium was changed weekly with fresh medium containing all the supplements.
Cloning potential evaluations: The cloning potential of cells developed in the liquid culture was assayed, at different intervals, in semi-solid medium. The cells were washed and seeded in 35 mm dishes in methylcellulose containing alpha medium supplemented with recombinant growth factors (SCF, G-CSF, GM-CSF and EPO). Following 2 weeks incubation, the cultures were scored with an inverted microscope. Colonies were classified as blast, mixed, erythroid, myeloid, and megakaryocytic, according to their cellular composition.
Morphological assessment: In order to characterize the resulting culture populations, aliquots of cells were deposited on a glass slide (cytocentrifuge, Shandon, Runcorn, UK), fixed and stained in May-Grunwald Giemsa. Other aliquots were stained by benzidine for intracellular hemoglobin.
Immunofluorescence staining: At different intervals, cells from the liquid cultures were assayed for CD34 antigen. Aliquots were harvested, washed and incubated on ice with FITC-labeled anti CD45 monoclonal antibody and either PE-labeled anti CD34 (HPCA-2) monoclonal antibody or PE-labeled control mouse Ig. After incubation, red cells were lysed with lysing solution, while the remaining cells were washed and analyzed by flow cytometer.
Flow cytometry: Cells were analyzed and sorted using FACStar^plus flow cytometer (Becton-Dickinson, Immunofluorometry systems, Mountain View, Calif.). Cells were passed at a rate of 1,000 cells/second through a […] nozzle, using saline as the sheath fluid. […] The PMTs was set at the appropriate voltage. Logarithmic amplification was applied for measurements of fluorescence and linear amplification—for forward light scatter. At least 10^4 cells were analyzed.
Cord blood-derived CD34 cells were plated in liquid culture in the presence of: FL—50 ng/ml, SCF—50 ng/ml, IL-6—50 ng/ml, with or without IL-3—20 ng/ml, with or without TEPA—10 μM. On day 7, the percentage of CD34 cells and the total cell number were determined. Aliquots equivalent to 1×10^3 initiating cells were assayed on days 0 and 7 for colony forming cells (CFU) by cloning in semi-solid medium. CFU expansion represents the ratio of CFU present on day 7 to CFU present on day 0.
CD34^+ cells derived from human neonatal cord blood were purified by immunomagnetic method and then cultured in liquid medium supplemented with cytokines either with or without transition metal chelators. At weekly intervals, the cultures were demi-depopulated by removing half of the culture content (supernatant and cells) and replacing it with fresh medium, cytokines and the chelators. At the indicated weeks the cellular content of the cultures were quantified for total cells (by a manual microscopic/hemocytometric method), for CD34^+ cells (by immuno-flow cytometry) and for clonogenic cells (by cloning the cells in cytokine-supplemented semi-solid medium).

[2] = tested on: HL-60 (human myeloid leukemia cell line); assay: Inhibition / induction of differentiation and growth inhibition of HL-60 cells by chelators; format: cell-based; conditions: 1000 nM
From the text: (§1) FIG. 44 provides the chemical structure of the various chelators employed in these experiments.

[3] = tested on: HL-60 cells; assay: Copper determination in chelator treated cells (atomic absorption); format: cell-based, human
Experimental: Copper Determination: Cells were harvested by centrifugation at 1000×g for 5 minutes. The cell pellet was washed three times by re-suspending the cells in PBS (Ca^++ and Mg^++ free) and centrifugation at 1000×g. An aliquot containing 2×10^6 cells was then transferred into a metal-free Eppendorf tube and the cells were recovered by centrifugation at 1000×g. The cell pellet was re-suspended in 0.03 M ultra-pure nitric acid to give a concentration of 1×10^7 cells/ml. The cells were homogenized with a high shear mixer (polytron, Kinematica, Switzerland) for 1 minutes to disrupt the cell and release intracellular copper content. Cell samples were vortexed before transferring to a vial autosampler and analyzed in duplicate by a Perkin Elmer graphite furnace atomic absorption spectrophotometer at a wavelength of 324.7 nm. The samples were analyzed against copper standard solution prepared from a commercial stock solution that was diluted with 0.03 M ultra pure nitric acid.
as §1

[4] = tested on: Lin− c-kit+ Sca-1+ murine hematopoietic precursors; conditions: cultured 7 days; cited from earlier work
[5] = tested on: CD34+ cells; assay: Ex vivo expansion of CD34+ cells with the PI 3-kinase inhibitor Ly294002; format: cell-based, human
Experimental: Mononuclear cell fraction collection and purification: Human blood cells were obtained from umbilical cord blood from female patients following full-term, normal delivery (informed consent was obtained). Samples were collected and processed within 12 hours postpartum. […] Louis, Mo.), sedimented for 30 minutes to remove most red blood cells. The leukocyte-rich fraction was harvested and layered on a Ficoll-Hypaque gradient (1.077 gram/ml; Sigma), and centrifuged at 400 g for 30 minutes. […] Sigma, St. Louis, Mo.). Purification of CD34^+ cells from mononuclear cell fractions: To purify CD34^+ mononuclear cells, the mononuclear cell fraction was subjected to two cycles of immuno-magnetic separation using the MiniMACS® or […]® CD34 Progenitor Cell Isolation Kit (Miltenyi Biotec, Auburn, Calif.) as per manufacturer's recommendations. The purity of the CD34^+ population obtained ranged from 95% to 98%, as determined by flow cytometry (see below). Ex vivo expansion: Purified CD34+ cells were cultured in culture bags (American Fluoroseal Co. Gaithersburg, Md., USA) at a concentration of 1×10^4 cells/ml in MEMα/10% FCS containing the following human recombinant cytokines: […] The cultures were replenished weekly, for three weeks, with the same volume of fresh medium, Ly294002 and growth factors. From week three and up to the termination of the experiments the cultures were weekly demi-depopulated. Cells were counted following staining with trypan blue. At various time points, harvested cells were used to assay the content of colony forming units in culture (CFUc), enumeration of CD34+ cells following re-selection and immunophenotype analysis. Cell morphology was determined on cytospin (Shandon, Pittsburgh, Pa., USA) prepared smears stained with May-Grunwald/Giemsa solutions. Surface antigen analysis: The cells were washed with a PBS solution containing 1% BSA, and stained (at 4° C. for 30 min) with fluorescein isothiocyanate (FITC)- or phycoerythrin (PE)-conjugated antibodies. The cells were then washed in the above buffer and analyzed using a FACScalibur® flow cytometer (Becton Dickinson, San Jose, Calif., USA). The cells were passed at a rate of up to 1000 cells/second, using a 488 nm argon laser beam as the light source for excitation. Emission of 10^4 cells was measured using logarithmic amplification, and analyzed using the CellQuest software (Becton Dickinson). Determination of CD34+ cell content after expansion: The content of CD34+ cells was determined from a purified, re-selected fraction of expanded hematopoietic progenitor cells, using the MiniMACS CD34 progenitor cell isolation kit (Miltenyi Biotec) according to the manufacturers recommendations. In brief, mononuclear cells derived from one portion of the culture were subjected to two cycles of immunomagnetic bead separation. The purity of the CD34+ population thus obtained was 95-98%, as evaluated by flow cytometry. CD34+ cell content of the entire culture was calculated as follows: number of CD34+ cells recovered following repurification after expansion multiplied by the culture volume/volume of the portion of the culture subjected to repurification (CD34+total=CD34+ in sample×total culture volume/volume of repurified sample). Up to week three the cultures were topped weekly with fresh medium. Therefore, the culture volume was measured directly. From week three and on (due to demi-depopulation), the culture volume was calculating by multiplying the actual volume with the number of passages. Fold expansion was calculated by dividing the CD34+ cell content of the culture by the number of inoculated CD34+ cells (Fold expansion=total CD34+ content/CD34+ inoculated). […] Determination of early CD34+ cell subsets: The percentages of the early CD34+ cell subsets were determined as well from the re-purified CD34+ cell fraction. […]

[6] = cited from earlier work
[7] = tested on: cord blood-derived CD34+ cells; assay: Copper-chelating peptides in CD34 cell cultures (proliferation, clonability); format: cell-based, human; conditions: after 7 weeks; peptides 10 μM each, G-CSF and GM-CSF 10 ng/ml each
Experimental: CD34 cells selection: Peripheral blood “buffy coat” cells derived from a whole blood unit, peripheral blood cells obtained following leukapheresis, or blood cells were layered on Ficoll-Hypaque (density 1.077 g/ml) and centrifuged at 1,000×g for 20 minutes at room temperature. The interphase layer of mononuclear cells were collected, washed three times with Ca/Mg free phosphate buffered saline containing 1% bovine serum albumin (BSA). The cells were incubated for 30 minutes at 4° C. with murine monoclonal anti CD34 antibody (0.5 μg/10^6 […] cells) and thereafter isolated using the miniMACA apparatus (Miltenyi-Biotec, Bergisch, Gladbach, Germany) according to the manufacturer's protocol.
Culture procedures: For the expansion of progenitor cells, CD34^+ enriched fractions were seeded at 1×10^4 cells/ml in alpha minimal essential medium containing 10% preselected fetal calf serum (FCS) (both from GIBCO, Grand Island, N.Y.). The medium was supplemented with a mixture of growth factors and Copper chelators. The cultures were incubated at 37° C. in an atmosphere of 5% CO2 in air with extra humidity. Half of the medium was changed weekly with fresh medium containing all the supplements.
The cloning potential of the cultured cells was assayed in semi-solid medium. The cells were washed and seeded in 35 mm dishes in methylcellulose containing alpha medium supplemented with 30% FCS and further with recombinant growth factors (stem cell factor (SCF), G-CSF, GM-CSF and erythropoietin (EPO)). Following two week incubation, the cultures were scored with an inverted microscope. Colonies were classified as blast, mixed, erythroid, myeloid, and megakaryocytic, according to their cellular composition.
The effect of Copper-chelating peptides on proliferation and clonability in CD34 cell cultures: Cultures were initiated with 10^4 cord blood-derived CD34^+ cells by plating purified cells in liquid medium in the presence of SCF, FLT3 and IL-6 (50 ng/ml each) and the Copper-binding peptides, Gly-Gly-His (GGH) or Gly-His-Lys (GHL) (10 μM each), or the late-acting cytokines G-CSF and GM-CSF (10 ng/ml each). At weekly intervals, the cultures were demi-depopulated and supplemented with fresh medium, cytokines and the peptides. After 7 weeks, cells were counted and assayed for CFUc.

[8] = Cytokines + Ly294002, two weeks
[9] = Cytokines + Ly294002, two weeks, percentage of re-purified CD34+ cells

Average Intracellular ppb Cu ([3]; 20 μM chelator): 27.5 ppb | Average Intracellular ppb Cu ([3]; 100 μM chelator): 73.9 ppb
Molecule: C1CNCCNCCNCCN1 [1,4,7,10-Tetraaza cyclododecane]
effect on differentiation of CD34+ cells [1]: stimulate differentiation | Differentiation Induction [2]: Toxic | Average Intracellular ppb Cu ([3]; 500 μM chelator): Toxic | activity at 20 µM ([3]; Homo sapiens, HL-60, 20 μM chelator, read-out: Average Intracellular Cu (% of control)): 56% | activity at 100 µM ([3]; Homo sapiens, HL-60, 100 μM chelator, read-out: Average Intracellular Cu (% of control)): 150%

Molecule: Cc1ccc(C2=CCC(C)(C)c3ccc(C#Cc4ccc(C(=O)O)cc4)cc32)cc1 [AGN 193109]
increase in the pre-CFU-S population [4]: approximately 6 fold

Molecule: O=c1cc(N2CCOCC2)oc2c(-c3ccccc3)cccc12 [LY294002]
CD34 + CD38- ×10^4 [5, 8]: 4.8 ×10^4 | CD34 + Lin- ×10^4 [5, 8]: 1.3 ×10^4 | CD34 × 10^4 [5, 8]: 53 × 10^4 | TNC × 10^4 [5, 8]: 155 × 10^4 | CD34 + CD38- (%) [5, 9]: 9.1% | CD34 + Lin- (%) [5, 9]: 2.5% | absolute content of CD34+CD38− cells ([5]; two weeks): 9×10^4 cells | absolute content of CD34+CD38−Lin− cells ([5]; two weeks): 2.5×10^4 cells | content of late progenitor, CD34+ cells ([5]; two weeks, treated cultures): 65×10^4 cells | frequency of CD34+ cells among the total cultured cells ([5]; two-weeks treatment): 0.3 | membrane permeability [6]: membrane permeable

Molecule: Gly-Gly-His [GGH]
effect on differentiation of CD34+ cells [1]: stimulate differentiation | decrease of cell number [7]: 10% | decrease of clonogenic potential (CFUc) [7]: 80%

Molecule: Gly-His-Lys [GHL]
effect on differentiation of CD34+ cells [1]: stimulate differentiation | decrease of cell number [7]: 25% | decrease of clonogenic potential (CFUc) [7]: 78%
